Experimental data as given in PubChem BioAssay AID248 (DTP/NCI, 2004).
“And” between values parts separate entries of the source, which are not always exact repeats. Equal values may be shown once. Inconclusive results and toxic doses are left out. No stated cut-off is given here; in the data, active means T/C of 150% or more; inactive means T/C below 125%. Square brackets hold non-standard residues; d marks the D form. Peptide text beside a SMILES is read from it. ξ: configuration not given here. ξN = NC(=O)CC(N)C(=O)O

System: L1210 leukemia ip in BDF1 mice, survival T/C
Assay: NCI In Vivo Anticancer Drug Screen. Data for tumor model L1210 Leukemia (intraperitoneal) in B6D2F1 (BDF1) mice
Settings: endpoint: mean survival time, higher = longer survival
Procedure, shortened: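 Ratio derived from survival: compound-dosed mice over vehicle-dosed mice, all bearing a transplantable tumor.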

[1] = dose: 100.0 mg/kg/injection, schedule: Q04DX002 (ip), vehicle: Klucel (hydroxypropylcellulose) (HPC)
[2] = dose: 200.0 mg/kg/injection, schedule: Q04DX002 (ip), vehicle: Klucel (hydroxypropylcellulose) (HPC)
[3] = dose: 400.0 mg/kg/injection, schedule: Q04DX002 (ip), vehicle: Klucel (hydroxypropylcellulose) (HPC)
[4] = dose: 100.0 mg/kg/injection, schedule: Q04DX003 (ip), vehicle: Klucel (hydroxypropylcellulose) (HPC)
[5] = dose: 200.0 mg/kg/injection, schedule: Q04DX003 (ip), vehicle: Klucel (hydroxypropylcellulose) (HPC)
[6] = dose: 400.0 mg/kg/injection, schedule: Q04DX003 (ip), vehicle: Klucel (hydroxypropylcellulose) (HPC)
[7] = dose: 100.0 mg/kg/injection, schedule: Q01DX001 (ip), vehicle: saline
[8] = dose: 200.0 mg/kg/injection, schedule: Q01DX001 (ip), vehicle: saline
[9] = dose: 100.0 mg/kg/injection, schedule: Q01DX009 (ip), vehicle: Klucel (hydroxypropylcellulose) (HPC)
[10] = dose: 200.0 mg/kg/injection, schedule: Q01DX009 (ip), vehicle: Klucel (hydroxypropylcellulose) (HPC)
[11] = dose: 400.0 mg/kg/injection, schedule: Q01DX009 (ip), vehicle: Klucel (hydroxypropylcellulose) (HPC)
[12] = dose: 100.0 mg/kg/injection, schedule: Q04DX002 (ip), vehicle: saline with Tween-80
[13] = dose: 400.0 mg/kg/injection, schedule: Q01DX001 (ip), vehicle: saline
[14] = dose: 50.0 mg/kg/injection, schedule: Q04DX003 (ip), vehicle: Klucel (hydroxypropylcellulose) (HPC)
[15] = dose: 75.0 mg/kg/injection, schedule: Q01DX001 (ip), vehicle: saline
[16] = dose: 150.0 mg/kg/injection, schedule: Q01DX001 (ip), vehicle: saline
[17] = dose: 300.0 mg/kg/injection, schedule: Q01DX001 (ip), vehicle: saline

Measured: T/C

O=[N+]([O-])c1ccc(N2N=NC3CC/C(=C\c4cccs4)C32N2CCOCC2)cc1 (centres undefined)
inactive: [1] 93 % of control | [2] 101 % of control | [3] 90 % of control

CCOC(=O)/C(C#N)=C/c1ccc(O)cc1
inactive: dose: 100.0 mg/kg/injection, schedule: Q01DX Z (ip), vehicle: methylcellulose (MC) 96 % of control | dose: 200.0 mg/kg/injection, schedule: Q01DX Z (ip), vehicle: methylcellulose (MC) 96 % of control

O=S(=O)(Nc1ccc(C(F)(F)F)cc1)c1ccc(C(F)(F)F)cc1
inactive: [4] 95 % of control | [5] 92 % of control

Cc1ccc(C)c(C(C)NC(=O)NCCCl)c1 (centres undefined)
inactive: [4] 91 % of control | [5] 88 % of control | [6] 96 % of control

c1nc(NCC2CC2)c2[nH]cnc2n1
inactive: [7] 97 % of control | [8] 97 % of control

COc1cc(/C=N/NC(=O)c2ccccc2NC(=O)c2ccccc2)ccc1O
inactive: [9] 97 % of control | [10] 95 % of control | [11] 100 % of control

CC(=O)NOCc1ccc([N+](=O)[O-])cc1
inactive: [4] 95 % of control | [5] 100 % of control | [6] 97 % of control

CC(=O)Nc1ccc(Cc2ccc(NC(C)=O)cc2)cc1
inactive: dose: 75.0 mg/kg/injection, schedule: Q01DX001 (ip), vehicle: Klucel (hydroxypropylcellulose) (HPC) 93 % of control | dose: 100.0 mg/kg/injection, schedule: Q04DX003 (ip), vehicle: saline with Tween-80 101 % of control | dose: 150.0 mg/kg/injection, schedule: Q01DX001 (ip), vehicle: Klucel (hydroxypropylcellulose) (HPC) 100 % of control | dose: 200.0 mg/kg/injection, schedule: Q04DX003 (ip), vehicle: saline with Tween-80 93 % of control | dose: 300.0 mg/kg/injection, schedule: Q01DX001 (ip), vehicle: Klucel (hydroxypropylcellulose) (HPC) 98 % of control | dose: 400.0 mg/kg/injection, schedule: Q04DX003 (ip), vehicle: saline with Tween-80 97 % of control

COc1nncc(-c2cnnc(OC)n2)n1
inactive: dose: 12.5 mg/kg/injection, schedule: Q04DX002 (ip), vehicle: Klucel (hydroxypropylcellulose) (HPC) 112 % of control | dose: 25.0 mg/kg/injection, schedule: Q04DX002 (ip), vehicle: Klucel (hydroxypropylcellulose) (HPC) 105 % of control | dose: 50.0 mg/kg/injection, schedule: Q04DX002 (ip), vehicle: Klucel (hydroxypropylcellulose) (HPC) 109 % of control

Cc1cc(C)c(NC2=NCCS2)cc1C
inactive: [12] 100 % of control

CC(=O)N(c1ccccc1)c1ccccc1
inactive: [9] 95 % of control | [1] 91 % of control | [10] 95 % of control | [2] 98 % of control | [11] 95 % of control | [3] 112 % of control

Cc1ccn2c(=O)c(CCBr)c(C)nc2c1
inactive: dose: 4.7 mg/kg/injection, schedule: Q01DX009 (ip), vehicle: saline 101 % of control | dose: 9.4 mg/kg/injection, schedule: Q01DX009 (ip), vehicle: saline 100 % of control | dose: 18.8 mg/kg/injection, schedule: Q01DX009 (ip), vehicle: saline 91 % of control | dose: 18.8 mg/kg/injection, schedule: Q04DX003 (ip), vehicle: saline 94 % of control

O=C(Nc1ccc(Nc2ccccc2)cc1)c1ccc(F)cc1
inactive: dose: 100.0 mg/kg/injection, schedule: Q01DX009 (ip), vehicle: gum acacia 91 % of control | dose: 200.0 mg/kg/injection, schedule: Q01DX009 (ip), vehicle: gum acacia 96 % of control | dose: 400.0 mg/kg/injection, schedule: Q01DX009 (ip), vehicle: gum acacia 94 % of control

CC(=O)NCCCOc1ccc(N)cc1
inactive: [7] 96 % of control | [8] 102 % of control | [13] 105 % of control

CCN(CC)C(=S)SCC(=O)O
inactive: dose: 100.0 mg/kg/injection, schedule: Q04DX003 (ip), vehicle: other 101 % of control | dose: 200.0 mg/kg/injection, schedule: Q04DX003 (ip), vehicle: other 98 % of control | dose: 400.0 mg/kg/injection, schedule: Q04DX003 (ip), vehicle: other 98 % of control

CC(=O)CC(=O)CC(=O)c1ccccc1
inactive: [14] 108 % of control | dose: 100.0 mg/kg/injection, schedule: Q01DX001 (ip), vehicle: Klucel (hydroxypropylcellulose) (HPC) 97 % of control | [4] 96 % of control | dose: 200.0 mg/kg/injection, schedule: Q01DX001 (ip), vehicle: Klucel (hydroxypropylcellulose) (HPC) 93 % of control | [5] 105 % of control | dose: 400.0 mg/kg/injection, schedule: Q01DX001 (ip), vehicle: Klucel (hydroxypropylcellulose) (HPC) 102 % of control

Cc1c(Cl)cccc1NC(=O)c1ccccc1C(=O)O
inactive: [9] 98 % of control | [4] 96 % of control | [10] 104 % of control | [5] 100 % of control | [11] 102 % of control | [6] 102 % of control

Nc1nc2nc(C(=O)O)cnc2c(=O)[nH]1
inactive: dose: 12.5 mg/kg/injection, schedule: Q04DX003 (ip), vehicle: saline 95 % of control | dose: 25.0 mg/kg/injection, schedule: Q04DX003 (ip), vehicle: saline 102 % of control

Cl[C](Cl)([Pb]([c]1ccccc1)([c]1ccccc1)[c]1ccccc1)[Pb]([c]1ccccc1)([c]1ccccc1)[c]1ccccc1
inactive: [12] 98 % of control | dose: 200.0 mg/kg/injection, schedule: Q04DX002 (ip), vehicle: saline with Tween-80 94 % of control | dose: 400.0 mg/kg/injection, schedule: Q04DX002 (ip), vehicle: saline with Tween-80 90 % of control

NCC(=O)NC(CC(N)=O)C(=O)O (centres undefined) (H-Gly-[ξN]-OH)
inactive: dose: 100.0 mg/kg/injection, schedule: Q01DX009 (ip), vehicle: saline 97 % of control | dose: 200.0 mg/kg/injection, schedule: Q01DX009 (ip), vehicle: saline 102 % of control | dose: 400.0 mg/kg/injection, schedule: Q01DX009 (ip), vehicle: saline 97 % of control

O=C(C[n+]1ccccc1/C=N/Nc1ccccc1)c1ccccc1
inactive: [15] 95 % of control | [16] 95 % of control | [17] 97 % of control

CCCCCCCCC(=O)N1CCOCC1
inactive: dose: 4.68 mg/kg/injection, schedule: Q01DX009 (ip), vehicle: saline 97 % of control | dose: 9.37 mg/kg/injection, schedule: Q01DX009 (ip), vehicle: saline 97 % of control | dose: 12.5 mg/kg/injection, schedule: Q04DX003 (ip), vehicle: Klucel (hydroxypropylcellulose) (HPC) 99 % of control | dose: 18.75 mg/kg/injection, schedule: Q01DX009 (ip), vehicle: saline 97 % of control | dose: 25.0 mg/kg/injection, schedule: Q01DX009 (ip), vehicle: Klucel (hydroxypropylcellulose) (HPC) 104 % of control | dose: 25.0 mg/kg/injection, schedule: Q04DX003 (ip), vehicle: Klucel (hydroxypropylcellulose) (HPC) 103 % of control and 104 % of control | dose: 37.5 mg/kg/injection, schedule: Q01DX009 (ip), vehicle: saline 95 % of control | dose: 50.0 mg/kg/injection, schedule: Q01DX009 (ip), vehicle: Klucel (hydroxypropylcellulose) (HPC) 96 % of control | [14] 101 % of control | [4] 92 % of control

O=C1CC2C(=O)C1C(C(=O)O)C2C(=O)O (centres undefined)
inactive: [15] 112 % of control | [16] 102 % of control | [17] 95 % of control

CC(=O)C1(C)C(=O)N(c2ccc(C)cc2)C(=O)N1c1ccc(C)cc1 (centres undefined)
inactive: [7] 104 % of control | [8] 102 % of control | [13] 102 % of control

O=C(O)CNCc1ccc(Cl)cc1
inactive: dose: 12.5 mg/kg/injection, schedule: Q01DX009 (ip), vehicle: water 104 % of control | dose: 25.0 mg/kg/injection, schedule: Q01DX009 (ip), vehicle: water 96 % of control | dose: 50.0 mg/kg/injection, schedule: Q01DX009 (ip), vehicle: water 104 % of control and 91 % of control | dose: 100.0 mg/kg/injection, schedule: Q01DX009 (ip), vehicle: water 100 % of control | dose: 100.0 mg/kg/injection, schedule: Q01DX Z (ip), vehicle: saline 111 % of control | dose: 100.0 mg/kg/injection, schedule: Q04DX003 (ip), vehicle: water 88 % of control | dose: 200.0 mg/kg/injection, schedule: Q01DX Z (ip), vehicle: saline 100 % of control | dose: 200.0 mg/kg/injection, schedule: Q04DX003 (ip), vehicle: water 92 % of control
